pIC50: −log10 of the molar value. Converted amounts (≈) assume the structure as drawn. One block for each compound: values may come before it. The source made the active and inactive calls. The rule behind the calls is not given here.
Key:
[1] = Cytotoxicity against human LX2 cells assessed as reduction in cell viability by MTT assay; format: functional, cell-based; details: LX-2
[2] = Cytotoxicity against human LX2 cells assessed as reduction in cell viability incubated for 48 hrs by MTT assay; format: functional, cell-based; details: LX-2, 48 h
[3] = Inhibition of hyaluronic acid deposition in human LX2 cells incubated for 72 hrs by ELISA; format: functional, cell-based; details: lx-2
[4] = Inhibition of laminin deposition in human LX2 cells incubated for 72 hrs by ELISA; format: functional, cell-based; details: lx-2
[5] = Inhibition of collagen type 1 deposition in human LX2 cells incubated for 72 hrs by ELISA; format: functional, cell-based; details: lx-2
[6] = tested on: L1210; assay: Growth inhibition of mouse L1210 cells incubated for 24 to 48 hrs by trypan blue exclusion assay; format: functional, cell-based
[7] = tested on: CCRF-CEM; assay: Growth inhibition of human CCRF-CEM cells incubated for 24 to 48 hrs by trypan blue exclusion assay; format: functional, cell-based
[8] = tested on: KB; assay: Growth inhibition of human KB cells incubated for 72 hrs by methylene blue staining based assay; format: functional, cell-based
[9] = tested on: LS174T; assay: Growth inhibition of human LS174T cells incubated for 72 hrs by methylene blue staining based assay; format: functional, cell-based
[10] = tested on: MCF7; assay: Growth inhibition of human MCF7 cells incubated for 72 hrs by methylene blue staining based assay; format: functional, cell-based; details: MCF7, 72 h
[11] = Inhibition of hyaluronic acid deposition in human LX2 cells; format: functional, cell-based; details: lx-2
[12] = Inhibition of laminin deposition in human LX2 cells; format: functional, cell-based; details: lx-2
[13] = Inhibition of collagen type 1 deposition in human LX2 cells; format: functional, cell-based; details: lx-2
[14] = tested on: LX-2; assay: Cytotoxicity against human LX2 cells assessed as reduction in cell viability at 100 uM by MTT assay; format: functional, cell-based
[15] = Potency index, ratio of STM IC50 to test compound IC50 for cytotoxicity against human LX2 cells; format: functional, LX-2
[16] = Potency index, ratio of STM IC50 to test compound IC50 for inhibition of hyaluronic acid deposition in human LX2 cells; format: functional, LX-2
[17] = Potency index, ratio of STM IC50 to test compound IC50 for inhibition of laminin deposition in human LX2 cells; format: functional, LX-2

Structure (SMILES): C=C1C(=O)O[C@@H]2[C@H]3C(C)=CC[C@@H](OC(=O)c4cccs4)[C@]3(C)CC[C@@H]12
pIC50 [1]: 4.50

Structure (SMILES): C=C1C(=O)O[C@@H]2[C@H]3C(C)=CC[C@@H](OC(C)=O)[C@]3(C)CC[C@@H]12
pIC50 [1]: 4.91

Structure (SMILES): C=C1C(=O)O[C@@H]2[C@H]3C(C)=CC[C@@H](OC(=O)c4ccccc4)[C@]3(C)CC[C@@H]12
pIC50 [1]: 4.77

Structure (SMILES): C=C1C(=O)O[C@@H]2[C@H]3C(C)=CC[C@@H](OC(=O)/C=C/c4ccncc4)[C@]3(C)CC[C@@H]12
pIC50 [1]: 4.79

pIC50 [3]: < 4.22
pIC50 [4]: 4.73
pIC50 [5]: 5.14
IC50 [6]: 0.16 µg/mL (≈ 0.644 µM)
IC50 [7]: 0.16 µg/mL (≈ 0.644 µM)
IC50 [8]: 0.16 µg/mL (≈ 0.644 µM)
IC50 [10]: 0.16 µg/mL (≈ 0.644 µM)
Structure (SMILES): C=C1C(=O)O[C@@H]2[C@H]3C(C)=CC[C@@H](O)[C@]3(C)CC[C@@H]12 [SANTAMARIN]
pIC50 [2]: 4.78
IC50 [9]: 0.16 µg/mL (≈ 0.644 µM)

Structure (SMILES): C=C1C(=O)O[C@@H]2[C@H]3C(C)=CC[C@@H](OC(=O)c4ccc(C(=O)O[C@@H]5CC=C(C)[C@@H]6[C@H]7OC(=O)C(=C)[C@@H]7CC[C@]65C)cc4)[C@]3(C)CC[C@@H]12
pIC50 [1]: 5.05

Structure (SMILES): C=C1C(=O)O[C@@H]2[C@H]3C(C)=CC[C@@H](OC(=O)/C=C/c4ccc(OC(C)=O)cc4)[C@]3(C)CC[C@@H]12
pIC50 [1]: 4.67

pIC50 [11]: 3.78
pIC50 [12]: 4.08
pIC50 [13]: 4.29
Structure (SMILES): COc1cc([C@H]2Oc3cc([C@H]4Oc5cc(O)cc(O)c5C(=O)[C@@H]4O)ccc3O[C@@H]2CO)ccc1O [SILYBIN A]
pIC50 [1]: 3.82

Structure (SMILES): CC1=CC[C@@H](O)[C@]2(C)CC[C@@H]3[C@H](OC(=O)[C@H]3CN(C)C)[C@@H]12
Activity [14]: inactive

Structure (SMILES): C=C1C(=O)O[C@@H]2[C@H]3C(C)=CC[C@@H](OC(=O)CCCCCCC)[C@]3(C)CC[C@@H]12
pIC50 [1]: 4.49

pIC50 [11]: 4.67
pIC50 [12]: 5.14
pIC50 [13]: 4.83
Structure (SMILES): C=C1C(=O)O[C@@H]2[C@H]3C(C)=CC[C@@H](OC(=O)/C=C/c4cccc(C(F)(F)F)c4)[C@]3(C)CC[C@@H]12
pIC50 [1]: 5.19
Ratio IC50 [15]: 3
Ratio IC50 [16]: 3
Ratio IC50 [17]: 3

Structure (SMILES): C=C1[C@H](O)C[C@@H](O)[C@]2(C)CC[C@H]3C(=C)C(=O)O[C@@H]3[C@@H]12
pIC50 [1]: 4.36

Structure (SMILES): C=C1C(=O)O[C@@H]2[C@H]3C(C)=CC[C@@H](OC(=O)c4cccc(C(F)(F)F)c4)[C@]3(C)CC[C@@H]12
pIC50 [1]: 4.94

Structure (SMILES): C=C1C(=O)O[C@@H]2[C@H]3C(C)=CC[C@@H](OC(=O)C4CCCC4)[C@]3(C)CC[C@@H]12
pIC50 [1]: 4.92

Structure (SMILES): C=C1C(=O)O[C@@H]2[C@H]3C(C)=CC[C@@H](OC(=O)/C=C/c4ccc(F)cc4)[C@]3(C)CC[C@@H]12
pIC50 [1]: 4.68

Structure (SMILES): C=C1C(=O)O[C@@H]2[C@@H]3[C@@](C)(CC[C@@H]12)[C@H](O)C[C@H]1O[C@@]31C
pIC50 [1]: 4.32

Structure (SMILES): C=C1C(=O)O[C@@H]2[C@H]3C(C)=CC[C@@H](OC(=O)/C=C/c4ccccc4)[C@]3(C)CC[C@@H]12
pIC50 [1]: 4.75

Structure (SMILES): C=C1C(=O)O[C@@H]2[C@H]3C(C)=CC[C@@H](OC(=O)CCC(=O)O)[C@]3(C)CC[C@@H]12
pIC50 [1]: 4.04

Structure (SMILES): C=C1C(=O)O[C@@H]2[C@H]3C(C)=CC[C@@H](OC(=O)c4cccnc4)[C@]3(C)CC[C@@H]12
pIC50 [1]: 4.56

pIC50 [11]: 5.12
pIC50 [12]: 5.48
pIC50 [13]: 5.21
Structure (SMILES): C=C1C(=O)O[C@@H]2[C@H]3C(C)=CC[C@@H](OC(=O)/C=C/c4c(F)c(F)c(F)c(F)c4F)[C@]3(C)CC[C@@H]12
pIC50 [1]: 5.34
Ratio IC50 [15]: 4
Ratio IC50 [16]: 8
Ratio IC50 [17]: 6

Structure (SMILES): C=C1C(=O)O[C@@H]2[C@H]3C(C)=CC[C@@H](OC(=O)/C=C/c4ccc(C=O)cc4)[C@]3(C)CC[C@@H]12
pIC50 [1]: 4.34

Structure (SMILES): C=C1C(=O)O[C@@H]2[C@H]3C(C)=CC[C@@H](OC(=O)/C=C/c4ccccc4C(F)(F)F)[C@]3(C)CC[C@@H]12
pIC50 [1]: 4.78

Structure (SMILES): C=C1C(=O)O[C@@H]2[C@H]3C(C)=CC[C@@H](OC(=O)/C=C/c4ccc(C(F)(F)F)cc4)[C@]3(C)CC[C@@H]12
pIC50 [1]: 4.79

Structure (SMILES): C=C1C(=O)O[C@@H]2[C@H]3C(C)=CC[C@@H](OC(=O)CCCC(=O)O[C@@H]4CC=C(C)[C@@H]5[C@H]6OC(=O)C(=C)[C@@H]6CC[C@]54C)[C@]3(C)CC[C@@H]12
pIC50 [1]: 4.95

pIC50 [11]: 4.75
pIC50 [12]: 5.18
pIC50 [13]: 4.79
Structure (SMILES): C=C1C(=O)O[C@@H]2[C@H]3C(C)=CC[C@@H](OC(=O)CCC(=O)O[C@@H]4CC=C(C)[C@@H]5[C@H]6OC(=O)C(=C)[C@@H]6CC[C@]54C)[C@]3(C)CC[C@@H]12
pIC50 [1]: 5.46
Ratio IC50 [15]: 5
Ratio IC50 [16]: 3
Ratio IC50 [17]: 3

Structure (SMILES): C=C1C(=O)O[C@@H]2[C@H]3C(C)=CC[C@@H](OC(=O)CCC(=O)Oc4ccc(-n5cc(C)ccc5=O)cc4)[C@]3(C)CC[C@@H]12
pIC50 [1]: 4.25

Structure (SMILES): C=C1C(=O)O[C@@H]2[C@H]3C(C)=CCC(=O)[C@]3(C)CC[C@@H]12
pIC50 [1]: 4.35

Structure (SMILES): C=C1C(=O)O[C@@H]2[C@H]3C(C)=CC[C@@H](OC(=O)c4ccc(-n5cc(C)ccc5=O)cc4)[C@]3(C)CC[C@@H]12
pIC50 [1]: 4.25

Source: ChEMBL document CHEMBL4814036, “Synthesis and anti-fibrotic effects of santamarin derivatives as cytotoxic agents against hepatic stellate cell line LX2” (Bioorg Med Chem Lett, 2021)
